Test results: patent publication US20160067211A1, “PHARMACEUTICAL COMPOSITION” (Eberhard Karls Universitaet Tuebingen Medizinische Fakultaet, priority 2013, published 2016)

Columns and labels:
[1] = test system: primary human fibroblasts (FF868); test: MUH proliferation assay, fibroblasts; format: cell-based; conditions: 6-PN, 8-PN 0.1 μM to 100 μM; TSA, SAHA 100 μM
Experimental: (§1) FIG. 5: real time cell monitoring of BLM and SK-MEL-28 melanoma cells treated with 6-PN and 8-PN. (A) BML and SK-MEL-28 cells were treated 24 hours after seeding with different concentrations of 6-PN and 8-PN (20 μM, 50 μM and 100 μM) over a 104 hour time period. The cellular impedance was measured over the entire observation time using the xCELLigence™ SP system and is depicted by the cell index (CI). All CI-values were normalized shortly before the treatment started. […] As a positive control, Triton X-100 0.1% was used to induce cell death. Shown are the mean±SD of three independent experiments, each performed in triplicates (B, C). […] Shown are the mean±SD; the experiments were performed in quadruplicates. (D) The MUH proliferation assay was repeated unter the same treatment conditions on primary human fibroblasts (FF868) and melanocytes (HEM1).
(§2) The cells were seeded in triplicates in 96-well plates at a density of 2,500 cells per well in 50 μl medium (5×10^4 cells per milliliter). After 24 hours, the medium was replaced by medium containing 6-PN, 8-PN (dissolved in DMSO), TSA (dissolved in EtOH) or SAHA (dissolved in DMSO) at the concentrations to be tested with or without the addition of the necrosis inhibitor IM-54 at 5 μM (Calbiochem, Darmstadt, Germany). Cells treated with culture medium without or with DMSO served as controls. The assay was started following an incubation of 24 hours. […] Plates were incubated at 37° C. for 1 hour and measured in a Fluoroskan II (Lab Systems, Helsinki, Finland) with a […]. The intensity of fluorescence indicates the number of viable cells in the wells.
(§3) Next it was asked whether the PNs also influence the proliferation of benign cells. To this end, human fibroblasts (FF) and foreskin melanocytes (HEM1) were treated with the same concentrations of 6-PN and 8-PN, and proliferation was assessed using the proliferation assay as described above.

[2] = test system: cleaved caspase-3 in SK-MEL-28 melanoma cells; test: Western blot for cleaved caspase-3; format: cell-based, human; conditions: SK-MEL-28, 100 μM
Experimental: Western blot analysis of SK-MEL-28 melanoma cells treated with 100 μM of 6-PN, 8-PN, SAHA or TSA. EtOH and DMSO were applied as controls.
The following antibodies were used: Anti-Vinculin and Anti-Actin (1:5000, Sigma-Aldrich), Anti-Acetyl-Histon H3 (1:5000, Millipore, Billerica, USA), Anti-Caspase-3 (1:1000), Anti-AKT, Anti-pAKT, Anti-ERK, Anti-pERK, […], Anti-p70S6 Kinase, and Anti-pS6 protein (1:1000), all from Cell Signaling, Frankfurt, Germany), Anti-LC3 (1:5000, Sigma-Aldrich).
To further analyze the type of cell death induced by 6-PN and 8-PN, western blot analyses of SK-MEL-28 melanoma cells were performed 1, 2, 4, 12 and 24 hours after the treatment with 100 μM 6-PN and 8-PN. […] Upon PN treatment an inconsistent expression of oncogenic AKT and phospho-AKT (pAKT) was detected. […] Thus, there was an obvious discrepancy between the expression of pAKT and pS6P. Therefore it was first also looked for the expression of P70S6 kinase and its phosphorylated form. […] Therefore it was next asked whether the S6P could be phosphorylated by a different mechanism. In this respect, activated ERK can phosphorylate the p90 ribosomal S6 kinase (pP90). pP90 also phosphorylates the S6P (in addition to the P70S6 kinase). Since the pP70S6 kinase was absent in the used cells (SK-MEL-28 and BLM), it was hypothesized that the phosphorylation of the S6P was conducted via the pERK/pP90 pathway, independent from the P70S6 signalling. This hypothesis was supported by the parallel down-regulation of the bands for pP90 (Thr359/Ser363) and pS6P 12 hours after the treatment with 6-PN, and the reappearance of both bands after 24 hours (FIG. 8). […] The western blot experiments were repeated with BLM cells under the same treatment conditions and yielded similar results (not shown).

[3] = test system: foreskin melanocytes (HEM1); test: MUH proliferation assay, melanocytes; format: cell-based; conditions: 6-PN, 8-PN at higher concentrations (0.1 μM to 100 μM tested); TSA, SAHA 100 μM
Experimental: as §1, §2, §3

BLM melanoma cells [4] = test: PI/Annexin V staining FACS, BLM; format: cell-based, human; conditions: 10 μM, 6 hours treatment
Experimental: (§4) (A) Cell cycle FACS analyses of PI stained BLM and SK-MEL-28 melanoma cells. 100 μM of 8-PN-induced a G2 arrest in both cells. (B) FACS analyses of BLM and SK-MEL-28 melanoma cells treated with 100 μM 6-PN or 8-PN and stained for annexin V/PI; staurosporin was used as control for apoptosis induction and DMSO as vehicle control. […] (C) BLM and SK-MEL-28 melanoma cells were treated with 100 μM of PNs; TSA, SAHA and EMSO were used as controls.
(§5) To further analyze the possibility of apoptosis induction, an extensive apoptosis assay was performed on SK-MEL-28 melanoma cells 4 hours after treatment with 100 μM 6-PN or 8-PN (FIG. 9). […] This was verified by FACS cell cycle analyses to screen for a possible increase of the sub-G1 fraction of cells (apoptotic cells) or for the induction of a G2 arrest (inhibition of proliferation). […] To further differentiate between the induction of apoptosis and/or necrosis an PI/Annexin V staining of SK-MEL-28 and BLM cells was performed 4 hours and 24 hours after the treatment with 6-PN or 8-PN; 10 μM staurosporin (6 hours treatment) was used as positive control for the induction of apoptosis; DMSO treatment was used as vehicle control. The cells were then analyzed by FACS.

SK-MEL-28 melanoma cells [5] = test: PI/Annexin V staining FACS, SK-MEL-28; format: cell-based, human; conditions: SK-MEL-28, 10 μM, 6 hours treatment
Experimental: as §4, §5

SK-MEL-28 melanoma cells [6] = test: MUH proliferation assay, SK-MEL-28; format: cell-based, human; conditions: SK-MEL-28, addition of 5 μM IM-54 to 6-PN/8-PN treatment
Experimental: as §1
(§6) The cells were seeded in triplicates in 96-well plates at a density of 2,500 cells per well in 50 μl medium (5×10^4 cells per milliliter). […] Plates were incubated at 37° C. for 1 hour and measured in a Fluoroskan II (Lab Systems, Helsinki, Finland) with a […]. The intensity of fluorescence indicates the number of viable cells in the wells. […]

BLM melanoma cells [7] = test: MUH proliferation assay, BLM; format: cell-based, human; conditions: addition of 5 μM IM-54 to 6-PN/8-PN treatment
Experimental: as §1, §6

| SMILES | fibroblast proliferation [1] | band for cleaved caspase-3 [2] | melanocyte proliferation [3] | other results |
| --- | --- | --- | --- | --- |
| O=C(CCCCCCC(=O)Nc1ccccc1)NO [SAHA, suberoyl anilide hydroxamic acid] | no reduced proliferation | no additional band | no reduced proliferation |  |
| CN[C@@H]1C[C@H]2O[C@@](C)([C@@H]1OC)n1c3ccccc3c3c4c(c5c6ccccc6n2c5c31)C(=O)NC4 [staurosporin, reference compound] |  |  |  | annexin V positive (apoptotic) cells (BLM melanoma cells [4]; DMSO control 4.1%): 17.4%; PI positive (nectrotic) cells (BLM melanoma cells [4]; DMSO control 9.1%): 16.6%; annexin V positive (apoptotic) cells (SK-MEL-28 melanoma cells [5]; DMSO control 2.5%): 13.9%; PI positive (nectrotic) cells (SK-MEL-28 melanoma cells [5]; DMSO control 7.9%): 9.3% |
| CCCCCNC1=C(c2cn(C)c3ccccc23)C(=O)N(C)C1=O [IM-54] |  |  |  | decrease of cell death rates at higher PN concentrations (SK-MEL-28 melanoma cells [6]): up to 35%; decrease of cell death rates at higher PN concentrations (BLM melanoma cells [7]): up to 35% |
| CC(/C=C/C(=O)NO)=C\[C@@H](C)C(=O)c1ccc(N(C)C)cc1 [TSA, trichostatin A] | no reduced proliferation | no additional band | no reduced proliferation |  |
